# US9409905B2, “Antibacterial compounds and methods for use” (PTC THERAPEUTICS, INC., priority 2011, dated 2016)
# Key:
# [1] = tested on: Pseudomonas aeruginosa (P. aeruginosa) 27853; test: Antibacterial activity, MIC (Table 5); format: cell-based; conditions: P. aeruginosa 27853, read-out: MIC, 27853
# Outline: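 Using a microbroth dilution format, the minimum inhibitory concentration was recorded as the lowest tested concentration that stopped visible bacterial growth, expressed in μg/mL.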
# [2] = tested on: Klebsiella pneumoniae (K. pneumoniae) 35657; test: Antibacterial activity, MIC (Table 4); format: cell-based; conditions: K. pneumoniae 35657, read-out: MIC, 35657
# Outline: (§1)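 Compounds are serially diluted in microbroth, bacteria are grown under the test conditions, and growth is then inspected macroscopically. The lowest concentration without visible growth is reported as the MIC (μg/mL).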
# [3] = tested on: Acinetobacter baumannii (A. baumannii) BAA747; test: Antibacterial activity, MIC (Table 4); format: cell-based; conditions: A. baumannii BAA747, read-out: MIC, BAA747
# Outline: as §1
# [4] = tested on: Haemophilus influenzae (H. influenzae) 49247; test: Antibacterial activity, MIC (Table 6); format: cell-based
# Excerpt: (§2) The antibacterial activity from a microbroth dilution method may be presented as the minimum inhibitory concentration (MIC in μg/mL). The MIC value is the lowest concentration of drug which prevents macroscopically visible growth under test conditions.
# (§3) Antibacterial activity of test compounds against the Gram-negative bacteria Haemophilus influenzae (H. influenzae) 49247 is shown in Table 6, Moraxella catarrhalis (M. catarrhalis) 25238 is shown in Table 7 and Neisseria meningitidis (N. meningitidis) 13090 is shown in Table 8.
# [5] = tested on: Staphylococcus aureus (S. aureus) 29213; test: Antibacterial activity, microbroth dilution MIC (Table 1); format: cell-based; conditions: microbroth dilution, Gram-positive S. aureus 29213, read-out: MIC, 29213
# Outline: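 Broth microdilution against S. aureus 29213, E. coli 25922 and hypersensitive E. coli BAS849. MIC in μg/mL is the lowest drug concentration preventing macroscopically visible growth under test conditions.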
# [6] = tested on: Escherichia coli (E. coli) BAS849; test: as above; format: cell-based; conditions: microbroth dilution, super sensitive Gram-negative E. coli BAS849, read-out: MIC, BAS849
# Outline: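 Values are MICs (μg/mL): the smallest drug amount at which macroscopically visible bacterial growth is absent under assay conditions, from a microdilution method in broth.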
# [7] = tested on: E. coli ELZ4251; test: Antibacterial activity, MIC, multi-drug resistant clinical isolate (Table 3); format: cell-based; conditions: Escherichia coli
# Outline: (§4)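 Values derive from a microbroth dilution method, taking as MIC (μg/mL) the lowest tested concentration without macroscopically visible growth.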
# [8] = tested on: E. coli ELZ4000; test: as above; format: cell-based; conditions: Escherichia coli, ELZ4000, read-out: MIC ELZ4000
# Outline: as §4
# [9] = tested on: E. coli LZ3111; test: Antibacterial activity, MIC, quinolone resistant strain (Table 2); format: cell-based; conditions: Escherichia coli, LZ3111, read-out: MIC LZ3111
# Outline: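 Growth inhibition assessed by serial drug dilution in broth; endpoint was absence of macroscopically visible growth, reported as MIC, μg/mL.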
# [10] = tested on: A. baumannii MXX2240; test: Antibacterial activity, MIC, resistant strain (Table 4); format: cell-based; conditions: Acinetobacter baumannii, MXX2240; resistant A. baumannii MMX2240, multi-drug resistant clinical isolate; read-out: MIC, MMX2240
# Outline: as §1
# [11] = tested on: K. pneumoniae MXX1232; test: as above; format: cell-based; conditions: Klebsiella pneumoniae, MXX1232; resistant K. pneumoniae MMX1232, multi-drug resistant clinical isolate; read-out: MIC, MMX1232
# Outline: as §1
# [12] = tested on: E. coli 25922; test: Antibacterial activity, microbroth dilution MIC (Table 1); format: cell-based, Escherichia coli; conditions: Escherichia coli; microbroth dilution; control Gram-negative E. coli 25922 strain; read-out: MIC, 25922
# Outline: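 Using broth microdilution, MIC endpoints (μg/mL) mark where visible growth no longer appears; the panel spans sensitive and control Gram-negative strains plus a Gram-positive strain.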
# [13] = tested on: Moraxella catarrhalis (M. catarrhalis) 25238; test: Antibacterial activity, MIC (Table 7); format: cell-based
# Excerpt: as §2, §3
# [14] = tested on: Neisseria meningitidis (N. meningitidis) 13090; test: Antibacterial activity, MIC (Table 8); format: cell-based
# Excerpt: as §2, §3
Compound,MIC [1] [µg/mL],MIC [2] [µg/mL],MIC [3] [µg/mL],MIC [4] [µg/mL],MIC [5] [µg/mL],MIC [6] [µg/mL],MIC [7] [µg/mL],MIC [8] [µg/mL],MIC [9] [µg/mL],MIC [10] [µg/mL],MIC [11] [µg/mL],MIC [12] [µg/mL],MIC [13] [µg/mL],MIC [14] [µg/mL]
"CCc1c(-c2ccc3c(c2)cc(CN2CCNCC2)n3C)[nH]c(=O)c(C(=O)O)c1O [Cpd 171, 5-ethyl-4-hydroxy-6-(1-methyl-2-(piperazin-1-ylmethyl)-1H-indol-5-yl)-2-oxo-1,2-dihydropyridine-3-carboxylic acid]",12.5 to 150,1 to 3.5,12.5 to 150,1 to 3.5,12.5 to 150,< 1,12.5 to 150,12.5 to 150,1 to 3.5,12.5 to 150,12.5 to 150,1 to 3.5,3.5 to 12.5,1 to 3.5
"CCc1c(-c2ccc3c(c2)cc(CN2CCCC2C)n3C)[nH]c(=O)c(C(=O)O)c1O (stereo not drawn) [Cpd 173, 5-ethyl-4-hydroxy-6-(1-methyl-2-((2-methylpyrrolidin-1-yl)methyl)-1H-indol-5-yl)-2-oxo-1,2-dihydropyridine-3-carboxylic acid]",12.5 to 150,1 to 3.5,1 to 3.5,< 1,3.5 to 12.5,< 1,3.5 to 12.5,12.5 to 150,3.5 to 12.5,12.5 to 150,12.5 to 150,< 1,< 1,< 1
"CCc1c(-c2ccc3c(c2)cc(CN2CC[C@H](N)C2)n3C)[nH]c(=O)c(C(=O)O)c1O [Cpd 180, (S)-6-(2-((3-aminopyrrolidin-1-yl)methyl)-1-methyl-1H-indol-5-yl)-5-ethyl-4-hydroxy-2-oxo-1,2-dihydropyridine-3-carboxylic acid]",12.5 to 150,3.5 to 12.5,12.5 to 150,1 to 3.5,12.5 to 150,< 1,3.5 to 12.5,12.5 to 150,1 to 3.5,12.5 to 150,12.5 to 150,1 to 3.5,3.5 to 12.5,1 to 3.5
"CCc1c(-c2ccc3c(c2)cc(CN2CCC(NC)C2)n3C)[nH]c(=O)c(C(=O)O)c1O (stereo not drawn) [Cpd 181, 5-ethyl-4-hydroxy-6-(1-methyl-2-((3-(methylamino)pyrrolidin-1-yl)methyl)-1H-indol-5-yl)-2-oxo-1,2-dihydropyridine-3-carboxylic acid]",12.5 to 150,1 to 3.5,3.5 to 12.5,1 to 3.5,12.5 to 150,< 1,12.5 to 150,12.5 to 150,1 to 3.5,12.5 to 150,12.5 to 150,1 to 3.5,1 to 3.5,1 to 3.5
"CCc1c(-c2ccc3c(c2)cc(CN2CC4CCCNC4C2)n3C)[nH]c(=O)c(C(=O)O)c1O (stereo not drawn) [Cpd 184, 5-ethyl-4-hydroxy-6-(1-methyl-2-((tetrahydro-1H-pyrrolo[3,4-b]pyridin-6(2H,7H,7aH)-yl)methyl)-1H-indol-5-yl)-2-oxo-1,2-dihydropyridine-3-carboxylic acid]",12.5 to 150,1 to 3.5,3.5 to 12.5,1 to 3.5,12.5 to 150,< 1,3.5 to 12.5,12.5 to 150,1 to 3.5,12.5 to 150,12.5 to 150,1 to 3.5,1 to 3.5,< 1
"CCc1c(-c2ccc3c(c2)cc(CN2CCC(C(C)(C)N)C2)n3C)[nH]c(=O)c(C(=O)O)c1O (stereo not drawn) [Cpd 185, 6-(2-((3-(2-aminopropan-2-yl)pyrrolidin-1-yl)methyl)-1-methyl-1H-indol-5-yl)-5-ethyl-4-hydroxy-2-oxo-1,2-dihydropyridine-3-carboxylic acid]",3.5 to 12.5,1 to 3.5,12.5 to 150,1 to 3.5,12.5 to 150,< 1,12.5 to 150,12.5 to 150,1 to 3.5,12.5 to 150,12.5 to 150,1 to 3.5,1 to 3.5,< 1
